Where a name gives a salt, the structure may show the parent alone.

Assay [1] deals with T1, MET (Homo sapiens, UniProt P08581). As to the kind of experiment: Test B: Inhibition of the autophosphorylation of MET; ELISA technique (pppY1230,1234,1235) in MKN45 cells. Details: Seed MKN45 cells into 96-well plates (Cell coat BD polylysine) at 20 000 cells/well; endogenous in cells; host or cells: MKN45 cells. The note with it: 1 h treatment, PhosphoMET ELISA. In kind it is cell-based. As for the experimental part:
Leave to adhere for 24 hours in an incubator.
The cells are treated the day after seeding with the products at 6 concentrations in duplicate for 1 h. At least 3 control wells are treated with the same final amount of DMSO.
Product dilution: Stock at 10 mM in pure DMSO—range from 10 mM to 30 μM with an increment of 3 in pure DMSO—intermediate 1/50 dilutions in culture medium and then removal of 10 μl added directly to the cells (200 μl): final range of 10 000 to 30 nM.
At the end of the incubation, carefully remove the supernatant and rinse with 200 μl of PBS. Next, place 100 μl of lysis buffer directly in the wells on ice and incubate at 4° C. for 30 minutes. Lysis buffer: 10 mM Tris HCl, pH7.4, 100 mM NaCl, 1 mM EDTA, 1 mM EGTA, 1% Triton X-100, 10% glycerol, 0.1% SDS, 0.5% deoxycholate, 20 mM NaF, 2 mM Na3VO4, 1 mM PMSF and cocktail of antiproteases.
The 100 μl of lysates are transferred into a V-bottomed polypropylene plate and the ELISA is performed immediately, or the plate is frozen at −80° C. • b) PhosphoMET ELISA BioSource Kit KH00281
Into each well of the kit plate, add 70 μl of kit dilution buffer+30 μL of cell lysate or 30 μl of lysis buffer for the blanks. Incubate for 2 h with gentle agitation at ambient temperature.
Rinse the wells 4 times with 400 μl of kit washing buffer. Incubate with 100 μl of anti-phospho MET antibody for 1 hour at ambient temperature.
Rinse the wells 4 times with 400 μl of kit washing buffer. Incubate with 100 μl of anti-rabbit HRP antibody for 30 minutes at ambient temperature (except for the wells of chromogen alone).
Rinse the wells 4 times with 400 μl of kit washing buffer. Introduce 100 μL of chromogen and incubate for 30 minutes in the dark at ambient temperature.
(§1) Stop the reaction with 100 μl of stop solution. Read without delay at […], 0.1 second on Wallac Victor plate reader. • C) Test C: Measurement of cell proliferation by ^14c-thymidine pulse
(An ELISA detects its analyte on a solid surface through an enzyme-linked reagent.)
Target sequence in this assay (P08581 25-1390): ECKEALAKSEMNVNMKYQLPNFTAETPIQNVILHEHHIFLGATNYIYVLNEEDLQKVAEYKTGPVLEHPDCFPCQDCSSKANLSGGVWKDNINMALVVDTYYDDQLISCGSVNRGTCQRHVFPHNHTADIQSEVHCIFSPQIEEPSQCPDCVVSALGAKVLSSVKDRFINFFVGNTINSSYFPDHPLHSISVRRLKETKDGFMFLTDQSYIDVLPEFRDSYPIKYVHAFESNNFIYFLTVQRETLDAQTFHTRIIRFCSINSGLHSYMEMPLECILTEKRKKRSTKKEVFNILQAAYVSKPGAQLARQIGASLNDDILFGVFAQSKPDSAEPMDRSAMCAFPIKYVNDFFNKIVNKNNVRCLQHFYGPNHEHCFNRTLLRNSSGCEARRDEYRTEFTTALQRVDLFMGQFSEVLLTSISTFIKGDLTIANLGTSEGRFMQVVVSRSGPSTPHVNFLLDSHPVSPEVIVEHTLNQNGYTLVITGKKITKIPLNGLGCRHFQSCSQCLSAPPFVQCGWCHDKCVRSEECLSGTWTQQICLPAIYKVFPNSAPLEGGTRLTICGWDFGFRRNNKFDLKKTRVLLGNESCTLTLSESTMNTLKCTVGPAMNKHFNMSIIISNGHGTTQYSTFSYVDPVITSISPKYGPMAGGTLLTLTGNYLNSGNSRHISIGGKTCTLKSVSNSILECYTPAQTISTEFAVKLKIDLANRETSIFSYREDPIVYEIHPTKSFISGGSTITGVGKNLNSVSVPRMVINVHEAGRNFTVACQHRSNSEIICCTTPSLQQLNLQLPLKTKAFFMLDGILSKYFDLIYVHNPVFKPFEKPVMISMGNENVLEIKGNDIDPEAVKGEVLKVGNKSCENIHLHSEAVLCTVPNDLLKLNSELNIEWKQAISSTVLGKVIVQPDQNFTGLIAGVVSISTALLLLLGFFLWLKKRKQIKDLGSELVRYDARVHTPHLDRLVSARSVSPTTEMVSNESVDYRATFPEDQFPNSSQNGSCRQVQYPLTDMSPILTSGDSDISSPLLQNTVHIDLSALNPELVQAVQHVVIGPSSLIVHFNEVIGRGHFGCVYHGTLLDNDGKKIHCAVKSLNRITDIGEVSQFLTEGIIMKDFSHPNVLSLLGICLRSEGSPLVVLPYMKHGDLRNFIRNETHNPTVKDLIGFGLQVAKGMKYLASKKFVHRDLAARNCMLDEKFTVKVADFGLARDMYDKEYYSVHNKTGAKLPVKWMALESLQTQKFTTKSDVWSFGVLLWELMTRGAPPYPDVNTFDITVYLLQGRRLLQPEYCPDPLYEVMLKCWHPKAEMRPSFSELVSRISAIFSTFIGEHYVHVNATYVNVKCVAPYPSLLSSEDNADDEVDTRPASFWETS

Assay [2] relates to HCT116 cells, MKN45 cells. Kind of assay: Test C: Measurement of cell proliferation by 14C-thymidine pulse. In kind it is cell-based. Particulars: 14C-thymidine incorporation, 96 h of treatment; cell line not given. As to the method:
as §1
The cells are seeded into Cytostar 96-well plates in 180 μl for 4 hours at 37° C. and 5% CO2: HCT116 cells at a rate of 2500 cells per well in DMEM medium+10% foetal calf serum+1% L-glutamine and MKN45 cells at a rate of 7500 cells per well in RPMI medium+10% foetal calf serum+1% L-glutamine. After these 4 hours of incubation, the products are added in 10 μl as a 20-fold concentrated solution according to the dilution method mentioned for the ELISA. The products are tested at 10 concentrations in duplicate from 10 000 nM to 0.3 nM with an increment of 3.
After treatment for 72 h, add 10 μl of ^14C-thymidine at 10 μCi/ml to obtain 0.1 μCi per well. The ^14C-thymidine incorporation is measured on a Micro-Beta machine (Perkin-Elmer) after 24 hours of pulse and 96 h of treatment.
All the steps of the assay are automated on BIOMEK 2000 or TECAN stations.
(In general: Incorporation of labelled thymidine or its analogues reports DNA synthesis.)

Assay [3] addresses T1, MET. Kind of assay: Test A: HTRF MET assay in 96-well format. Particulars: MET 5 nM, 10 μM ATP. Format: biochemical. Set-up: The His-Tev-MET (956-1390) recombinant DNA in pFastBac (Invitrogen) is transfected into insect cells; His tag (N, cleaved yes); TEV cleavage site (N); made in house; host or cells: SF21 insect cells (baculovirus, pFastBac). As for the experimental part:
I) Expression and Purification of MET, Cytoplasmic Domain
The His-Tev-MET (956-1390) recombinant DNA in pFastBac (Invitrogen) is transfected into insect cells, and after several viral amplification steps, the final baculovirus stock is tested for the expression of the protein of interest.
After infection for 72 h at 27° C. with the recombinant virus, the SF21 cell cultures are harvested by centrifugation and the cell pellets are stored at −80° C.
The cell pellets are resuspended in lysis buffer (buffer A [50 mM HEPES, pH 7.5, 250 mM NaCl, 10% glycerol, 1 mM TECP]; +cocktail of protease inhibitors, Roche Diagnostics, without EDTA, ref 1873580), stirred at 4° C. until the mixture is homogeneous and then lyzed mechanically using a “Dounce” type apparatus.
After centrifugation, the lysis supernatant is incubated for 2 h at 4° C. with nickel chelate resin (His-Trap 6 Fast Flow™, GE HealthCare). After washing with 20 volumes of buffer A, the suspension is packed into a column, and the proteins are eluted with a gradient of buffer B ([…]+290 mM imidazole).
The fractions containing the protein of interest for the purpose of electrophoretic analysis (SDS PAGE) are combined, concentrated by ultrafiltration (10 kDa cut-off) and injected onto an exclusion chromatography column (Superdex™ 200, GE HealthCare) equilibrated in buffer A.
After enzymatic cleavage of the histidine tag, the protein is reinjected onto a new IMAC nickel chelate chromatography column (His-Trap 6 Fast Flow™, GE HealthCare) equilibrated in buffer A. The fractions eluted with a gradient of buffer B and containing the protein of interest after electrophoresis (SDS PAGE) are finally combined and conserved at −80° C.
For the production of autophosphorylated protein, the previous fractions are incubated for 1 h at ambient temperature after the addition of 2 mM ATP, 2 mM MgCl2, and 4 mM Na3VO4. After the reaction has been stopped with 5 mM of EDTA, the reaction mixture is injected onto a HiPrep desalifying column (GE HealthCare) preequilibrated in buffer A+4 mM Na3VO4, and the fractions containing the protein of interest (SDS PAGE analysis) are combined and stored at −80° C. The degree of phosphorylation is verified by mass spectrometry (LC-MS) and by peptide mapping.
• A) Test A: HTRF MET assay in 96-well format
MET at a final concentration of 5 nM is incubated in a final volume of 50 μl of enzymatic reaction in the presence of the test molecule (for a final concentration range of from 0.17 nM to 10 μM, 3% DMSO final concentration) in 10 mM MOPS buffer, pH 7.4, 1 mM DTT, 0.01% Tween 20. The reaction is initiated with the substrate solution to obtain final concentrations of 1 μg/ml poly-(GAT), 10 μM ATP and 5 mM MgCl2. After incubation for 10 min at ambient temperature, the reaction is stopped with a 30 μl mix so as to obtain a final solution of 50 mM Hepes pH 7.5, 500 mM potassium fluoride, 0.1% BSA and 133 mM EDTA in the presence of 80 ng of streptavidin 61SAXLB Cis-Bio Int. and 18 ng of anti-phosphotyrosine Mab PT66-Europium Cryptate per well. After incubation for 2 hours at ambient temperature, the reading is taken at 2 wavelengths, 620 nm and 665 nm, on a reader for the TRACE/HTRF technique and the % inhibition is calculated from the 665/620 ratios.
Target sequence in this assay (P08581 956-1390): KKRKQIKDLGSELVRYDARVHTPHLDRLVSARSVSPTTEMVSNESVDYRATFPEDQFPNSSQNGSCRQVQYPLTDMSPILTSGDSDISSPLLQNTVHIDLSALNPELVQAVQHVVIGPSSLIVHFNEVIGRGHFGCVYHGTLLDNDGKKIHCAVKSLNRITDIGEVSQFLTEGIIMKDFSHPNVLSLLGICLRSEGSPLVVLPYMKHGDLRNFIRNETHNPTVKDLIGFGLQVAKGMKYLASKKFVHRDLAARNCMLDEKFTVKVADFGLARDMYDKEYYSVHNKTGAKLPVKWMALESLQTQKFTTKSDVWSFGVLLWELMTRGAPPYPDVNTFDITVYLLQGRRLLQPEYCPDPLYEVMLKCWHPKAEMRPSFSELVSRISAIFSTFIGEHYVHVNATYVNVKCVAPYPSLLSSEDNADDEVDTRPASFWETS

With `CN1CCN(CCNC(=O)Nc2nc3ccc(Sc4nnc5n4N=C(c4ccc(F)cc4)CC5)cc3s2)CC1` [Example 13, 1-(6-{[6-(4-Fluorophenyl)-7,8-dihydro[1,2,4]triazolo[4,3-b]pyridazin-3-yl]sulphanyl}-1,3-benzothiazol-2-yl)-3-[2-(4-methylpiperazin-1-yl)ethyl]urea], the IC50 was under 100 nM in assay [1], under 1000 nM in assay [2] and under 100 nM in assay [3].

As for `CN1CCN(CCNC(=O)Nc2nc3ccc(Sc4nnc5ccc(-c6ccc(F)cc6)nn45)cc3s2)CC1` [Example 14, 1-(6-{[6-(4-Fluorophenyl)[1,2,4]triazolo[4,3-b]pyridazin-3-yl]sulphanyl}-1,3-benzothiazol-2-yl)-3-[2-(4-methylpiperazin-1-yl)ethyl]urea], the IC50 in assay [1] was under 100 nM; in assay [2] it was under 1000 nM; in assay [3], under 100 nM.

For the compound `O=C(CCCN1CCOCC1)Nc1nc2ccc(Sc3nnc4ccc(-c5ccc(F)cc5)nn34)cc2s1` [Example 15, N-(6-{[6-(4-Fluorophenyl)[1,2,4]triazolo[4,3-b]pyridazin-3-yl]sulphanyl}-1,3-benzothiazol-2-yl)-4-morpholin-4-ylbutanamide], the IC50 in assay [1] is under 100 nM; in assay [2], under 1000 nM; in assay [3], under 100 nM.

`CC(C)(C)OC(=O)Nc1nc2ccc(Sc3nnc4ccc(N5CCOCC5)nn34)cc2s1` [Example 16, 1,1-Dimethylethyl (6-{[6-(morpholin-4-yl)[1,2,4]triazolo[4,3-b]pyridazin-3-yl]sulphanyl}-1,3-benzothiazol-2-yl)carbamate]: the IC50 in assay [1] is under 100 nM; in assay [2], under 1000 nM; in assay [3], under 100 nM.

With `CCN(CC)CCNC(=O)Nc1nc2ccc(Sc3nnc4ccc(-c5ccc(F)cc5)nn34)cc2s1` [Example 17, 1-[2-(Diethylamino)ethyl]-3-(6-{[6-(4-fluorophenyl)[1,2,4]triazolo[4,3-b]pyridazin-3-yl]sulphanyl}-1,3-benzothiazol-2-yl)urea], the IC50 in assay [1] was under 100 nM; in assay [2] it was under 1000 nM; in assay [3] it was under 100 nM.

As for `CC(=O)Nc1nc2ccc(Sc3nnc4ccc(N5CCOCC5)nn34)cc2s1` [Example 18, N-(6-{[6-(Morpholin-4-yl)[1,2,4]triazolo[4,3-b]pyridazin-3-yl]sulphanyl}-1,3-benzothiazol-2-yl)acetamide], the IC50 in assay [1] is 100 to 500 nM; in assay [2], under 1000 nM; in assay [3] it was under 100 nM.

Regarding `CN1CCN(c2ccc3nnc(Sc4ccc5nc(NC(=O)OC(C)(C)C)sc5c4)n3n2)CC1` [Example 19, 1,1-Dimethylethyl (6-{[6-(4-methylpiperazin-1-yl)[1,2,4]triazolo[4,3-b]pyridazin-3-yl]sulphanyl}-1,3-benzothiazol-2-yl)carbamate hydrochloride], the IC50 in assay [1] was under 100 nM; in assay [2], under 1000 nM; in assay [3], under 100 nM.

With `O=C(NCCN1CCOCC1)Nc1nc2ccc(Sc3nnc4ccc(-n5ccnc5)nn34)cc2s1` [Example 20, 1-(6-{[6-(1H-Imidazol-1-yl)[1,2,4]triazolo[4,3-b]pyridazin-3-yl]sulphanyl}-1,3-benzothiazol-2-yl)-3-[2-(morpholin-4-yl)ethyl]urea], the IC50 in assay [1] was under 100 nM; in assay [2] it was under 1000 nM; in assay [3] it was under 100 nM.

In the case of `COc1ccc2nnc(Sc3ccc4nc(NC(=O)OC(C)(C)C)sc4c3)n2n1` [Example 21, 1,1-Dimethylethyl {6-[(6-methoxy[1,2,4]triazolo[4,3-b]pyridazin-3-yl)sulphanyl]-1,3-benzothiazol-2-yl}carbamate], the values for the IC50 in assay [1], in assay [2] and in assay [3] were 100 to 500 nM, under 1000 nM and under 100 nM, respectively.

As to `CC(C)(C)OC(=O)Nc1nc2ccc(Sc3nnc4ccc(-n5ccnc5)nn34)cc2s1` [Example 22, 1,1-Dimethylethyl (6-{[6-(1H-imidazol-1-yl)[1,2,4]triazolo[4,3-b]pyridazin-3-yl]sulphanyl}-1,3-benzothiazol-2-yl)carbamate], the IC50 was 100 to 500 nM in assay [1], under 1000 nM in assay [2] and under 100 nM in assay [3].

In the case of `COc1ccc2nnc(Sc3ccc4nc(NC(=O)NCCN5CCOCC5)sc4c3)n2n1` [Example 23, 1-{6-[(6-Methoxy[1,2,4]triazolo[4,3-b]pyridazin-3-yl)sulphanyl]-1,3-benzothiazol-2-yl}-3-[2-(morpholin-4-yl)ethyl]urea], the IC50 in assay [1] was under 100 nM; in assay [2] it was under 1000 nM; in assay [3], under 100 nM.

In the case of `COCCNc1ccc2nnc(Sc3ccc4nc(NC(=O)OC(C)(C)C)sc4c3)n2n1` [Example 24, 1,1-Dimethylethyl[6-({6-[(2-methoxyethyl)amino][1,2,4]triazolo[4,3-b]pyridazin-3-yl}sulphanyl)-1,3-benzothiazol-2-yl]carbamate], the IC50 in assay [1] is under 100 nM; in assay [2], under 1000 nM; in assay [3], under 100 nM.

For orientation: IC50 means the midpoint of a concentration-inhibition curve.

The record behind these values is US9115134B2, “6-triazolopyridazine sulfanyl benzothiazole derivatives as MET inhibitors” (SANOFI, priority 2007, dated 2015).
